{"source": "patent US20130251663A1", "about": "“Tissue Preservation Fluid” (GREENBLENDZ, INC., priority 2012, published 2013)", "origin": "cited, not measured here", "test_system": "eyes nose and throat", "conditions": "airborne exposure", "data": [{"smiles": "C=O", "note": "[formaldehyde]", "values": [{"measurement": "Airborne concentration immediately dangerous to life and health", "result": 100, "unit": "ppm"}, {"measurement": "Airborne concentration that can cause irritation of the eyes nose and throat", "result": "above 0.1 ppm"}]}]}
